The values that follow come from patent US7968577B2 (Bristol-Myers Squibb Company, priority 2006, dated 2011).

SMILES strings stand for the structures.

Test [1] deals with T1, human glucocorticoid receptor (Homo sapiens, UniProt P04150).
T1 construct: purified human recombinant full-length glucocorticoid receptor; purchased Invitrogen Part #2893
T1 sequence (P04150 1-777): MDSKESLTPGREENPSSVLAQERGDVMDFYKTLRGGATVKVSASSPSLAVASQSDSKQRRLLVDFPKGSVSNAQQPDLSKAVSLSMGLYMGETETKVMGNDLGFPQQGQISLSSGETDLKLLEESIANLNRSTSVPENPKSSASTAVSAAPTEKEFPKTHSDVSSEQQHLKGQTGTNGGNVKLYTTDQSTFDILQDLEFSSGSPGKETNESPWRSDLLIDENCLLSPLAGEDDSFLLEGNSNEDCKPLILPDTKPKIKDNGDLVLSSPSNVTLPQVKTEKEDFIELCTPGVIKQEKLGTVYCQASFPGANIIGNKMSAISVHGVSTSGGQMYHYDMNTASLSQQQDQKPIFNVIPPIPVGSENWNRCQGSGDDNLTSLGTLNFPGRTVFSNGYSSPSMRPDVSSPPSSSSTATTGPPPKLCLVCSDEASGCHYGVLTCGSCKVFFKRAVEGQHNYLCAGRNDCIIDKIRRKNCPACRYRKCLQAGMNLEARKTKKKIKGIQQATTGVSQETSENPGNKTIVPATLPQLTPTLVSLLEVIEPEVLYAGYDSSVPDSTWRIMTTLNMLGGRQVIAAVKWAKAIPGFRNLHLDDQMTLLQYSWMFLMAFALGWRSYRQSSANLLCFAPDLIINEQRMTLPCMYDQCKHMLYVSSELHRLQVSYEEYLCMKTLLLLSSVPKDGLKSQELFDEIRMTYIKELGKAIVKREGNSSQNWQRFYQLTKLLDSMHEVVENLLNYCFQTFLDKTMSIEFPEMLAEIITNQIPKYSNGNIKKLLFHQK
The test can be described thus: Glucocorticoid Receptor Binding Assay (I), fluorescence polarization competitor kit (Fluormone GS Red). To be noted: GR Binding Assay (I). On the procedure: Glucocorticoid Receptor Binding Assay (I)^a
In order to assess the affinity of test compounds for the human glucocorticoid receptor, a commercially available kit was used (Glucocorticoid Receptor Competitor Assay Kit, Invitrogen Part #2893). Briefly, purified human recombinant full-length glucocorticoid receptor (2 nM) was mixed with fluorescently labeled glucocorticoid (1 nM Fluormone GS Red) in the presence or absence of test compound. After two hour incubation at room temperature in the dark, the fluorescence polarization (FP) of the samples was measured. […] Test compounds were analyzed in the concentration range from 8.5 E-05 μM to 5 μM.
(Polarisation of emitted light reports the rotation of a fluorescent probe.)

In test [2] the target is T2, human full-length glucocorticoid receptor (Homo sapiens, UniProt P04150).
T2 construct: recombinantly expressed human full-length glucocorticoid receptor; purchased PanVera Co., Madison, Wis; P2816
T2 sequence (P04150 1-777): T1 sequence (P04150 1-777)
Description: Glucocorticoid Receptor Binding Assay (II), fluorescence polarization competitor kit (Fluormone GS1). To be noted: GR Binding Assay (II). The method in brief:
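Cell lysate with recombinant receptor incubated with 1 nM Fluormone GS1 tracer, with or without test compound, for one hour at room temperature. Binding read as displacement by fluorescence polarization.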

As usually defined, the Ki is a dissociation constant, usually derived from enzyme kinetics or from competition with a known ligand. As to `CC(C)Oc1ccc(-c2ccc(C(c3ccccc3)C(C)(C)C(=O)Nc3nncs3)cc2)cc1F` (stereo not shown) [Example 385, 3-(3′-fluoro-4′-((1-methylethyl)oxy)-4-biphenylyl)-2,2-dimethyl-3-phenyl-N-1,3,4-thiadiazol-2-ylpropanamide], affinity in test [1] was put at a Ki of 13.8 nM.
Same read-out and setting: the result for `CC(=O)Nc1ccc(-c2ccc(C(CC(C)C)C(C)(C)C(=O)Nc3nncs3)cc2)cc1` (stereo not shown) [Example 440, 3-(4′-acetamido-4-biphenylyl)-2,2,5-trimethyl-N-1,3,4-thiadiazol-2-ylhexanamide] reads 21.4 nM.
As for `O=C(Nc1nccs1)C1(C(c2ccccc2)c2ccccc2)CCC1` [Example 153, 1-(diphenylmethyl)-N-1,3-thiazol-2-ylcyclobutanecarboxamide], the Ki in test [1] stood at 23.2 nM.
Same read-out and setting: in the case of `COCc1ccc(-c2ccc(C(CC(C)C)C(C)(C)C(=O)Nc3nncs3)cc2)cc1` (stereo not shown) [Example 428, 3-(4′-(methoxymethyl)-4-biphenylyl)-2,2,5-trimethyl-N-1,3,4-thiadiazol-2-ylhexanamide] it was 17.9 nM; in that of `CC(C)(C)c1ccc(-c2ccc(C(c3ccccc3)C(C)(C)C(=O)Nc3nncs3)cc2)cc1` (stereo not shown) [Example 417, 3-(4′-tert-butyl-4-biphenylyl)-2,2-dimethyl-3-phenyl-N-1,3,4-thiadiazol-2-ylpropanamide], 52.9 nM.
Still for that read-out and setting: in the case of `CC(C)(C(=O)Nc1nncs1)C(c1ccccc1)c1ccc(Br)cc1` (stereo not shown) [Example 324, 3-(4-bromophenyl)-2,2-dimethyl-3-phenyl-N-1,3,4-thiadiazol-2-ylpropanamide] it was 9.36 nM.
Still for that read-out and setting: in the case of `CCCc1ccc(-c2ccc(C(c3ccccc3)C(C)(C)C(=O)Nc3nncs3)cc2)cc1` (stereo not shown) [Example 384, 2,2-dimethyl-3-phenyl-3-(4′-propyl-4-biphenylyl)-N-1,3,4-thiadiazol-2-ylpropanamide] it was 6.43 nM; in that of `COc1ccc(-c2ccc(C(c3ccccc3)C(C)(C)C(=O)Nc3nncs3)cc2)cc1F` (stereo not shown) [Example 420, 3-(3′-fluoro-4′-methoxy-4-biphenylyl)-2,2-dimethyl-3-phenyl-N-1,3,4-thiadiazol-2-ylpropanamide], 13.3 nM; in that of `CN1CCN(C(=O)c2ccc(-c3ccc(C(c4ccccc4)C(C)(C)C(=O)Nc4nncs4)cc3)cc2)CC1` (stereo not shown) [Example 426, 2,2-dimethyl-3-(4′-((4-methyl-1-piperazinyl)carbonyl)-4-biphenylyl)-3-phenyl-N-1,3,4-thiadiazol-2-ylpropanamide], 3.68 nM.
As for `CC(C)(C(=O)Nc1nccs1)C(c1ccccc1)c1ccc(Oc2ccccc2)cc1` (stereo not shown) [Example 321, 2,2-dimethyl-3-phenyl-3-(4-(phenyloxy)phenyl)-N-1,3-thiazol-2-ylpropanamide], the Ki in test [1] was found to be 5.68 nM.
The same measure, in the same setting: in the case of `CC(C)CC(c1ccc(Br)cc1)C(C)(C)C(=O)Nc1nncs1` (stereo not shown) [Example 387, 3-(4-bromophenyl)-2,2,5-trimethyl-N-1,3,4-thiadiazol-2-ylhexanamide] it was 17.1 nM; in that of `COc1ccc(C(c2ccccc2)C(C)(C)C(=O)Nc2nncs2)cc1C` (stereo not shown) [Example 293, 2,2-dimethyl-3-(3-methyl-4-(methyloxy)phenyl)-3-phenyl-N-1,3,4-thiadiazol-2-ylpropanamide], 9.85 nM.
Same read-out and setting: the result for `CN(C)C(=O)c1ccc(-c2ccc(C(c3ccccc3)C(C)(C)C(=O)Nc3nncs3)cc2)cc1` (stereo not shown) [Example 379, 4′-(2,2-dimethyl-3-oxo-1-phenyl-3-(1,3,4-thiadiazol-2-ylamino)propyl)-N,N-dimethyl-4-biphenylcarboxamide] reads 1.24 nM; that for `CC(C)(C(=O)Nc1nncs1)C(c1ccccc1)c1ccc(Br)cc1` (stereo not shown) [Example 323, 3-(4-bromophenyl)-2,2-dimethyl-3-phenyl-N-1,3,4-thiadiazol-2-ylpropanamide], 5.07 nM.
On to `CC(C)(C(=O)Nc1nncs1)C(c1ccccc1)c1ccc(-c2ccc(CO)cc2)cc1` (stereo not shown) [Example 421, 3-(4′-(hydroxymethyl)-4-biphenylyl)-2,2-dimethyl-3-phenyl-N-1,3,4-thiadiazol-2-ylpropanamide], for which the affinity in test [1], expressed as Ki, was 5.72 nM.
Same read-out and setting: in the case of `CC(=O)Nc1ccc(-c2ccc(C(c3ccccc3)C(C)(C)C(=O)Nc3nncs3)cc2)cc1` (stereo not shown) [Example 414, 3-(4′-acetamido-4-biphenylyl)-2,2-dimethyl-3-phenyl-N-1,3,4-thiadiazol-2-ylpropanamide] it was 9.27 nM.
On the same count and under the same terms, the result for `CC(C)CC(c1ccc(-c2ccc(C(=O)N(C)C)cc2)cc1)C(C)(C)C(=O)Nc1nncs1` (stereo not shown) [Example 393, 4′-(1-(1,1-dimethyl-2-oxo-2-(1,3,4-thiadiazol-2-ylamino)ethyl)-3-methylbutyl)-N,N-dimethyl-4-biphenylcarboxamide] reads 3.68 nM.
On the same count and under the same terms, in the case of `COc1ccc(C(c2ccccc2)C(C)(C)C(=O)Nc2nncs2)cc1C` (single isomer, unassigned) [Example 295, 2,2-dimethyl-3-(3-methyl-4-(methyloxy)phenyl)-3-phenyl-N-1,3,4-thiadiazol-2-ylpropanamide] it was 13.9 nM; in that of `CC(C)(C(=O)Nc1nccs1)C(c1ccccc1)c1ccc(Cc2ccccc2)cc1` (stereo not shown) [Example 319, 2,2-dimethyl-3-phenyl-3-(4-(phenylmethyl)phenyl)-N-1,3-thiazol-2-ylpropanamide], 386 nM.
Turning to `CN(C)C(=O)c1ccc(-c2ccc(C(c3ccccc3)C(C)(C)C(=O)Nc3nncs3)cc2)cc1` (stereo not shown) [Example 380, 4′-(2,2-dimethyl-3-oxo-1-phenyl-3-(1,3,4-thiadiazol-2-ylamino)propyl)-N,N-dimethyl-4-biphenylcarboxamide], affinity in test [1] was put at a Ki of 24.2 nM.
On the same count and under the same terms, in the case of `COc1ccc(-c2ccc(C(c3ccccc3)C(C)(C)C(=O)Nc3nncs3)cc2)cc1` (stereo not shown) [Example 377, 2,2-dimethyl-3-(4′-(methyloxy)-4-biphenylyl)-3-phenyl-N-1,3,4-thiadiazol-2-ylpropanamide] it was 1.81 nM.
Same read-out and setting: in the case of `CC(C)CC(c1ccc(Br)cc1)C(C)(C)C(=O)Nc1nccs1` (stereo not shown) [Example 386, 3-(4-bromophenyl)-2,2,5-trimethyl-N-1,3-thiazol-2-ylhexanamide] it was 20.6 nM.
Same read-out and setting: in the case of `CC(C)Cc1ccc(-c2ccc(C(c3ccccc3)C(C)(C)C(=O)Nc3nncs3)cc2)cc1` (stereo not shown) [Example 383, 2,2-dimethyl-3-(4′-(2-methylpropyl)-4-biphenylyl)-3-phenyl-N-1,3,4-thiadiazol-2-ylpropanamide] it was 9.18 nM.
As for `O=C(Nc1nccs1)C1(C(c2ccccc2)c2ccccc2)CCCCC1` [Example 156, 1-(diphenylmethyl)-N-1,3-thiazol-2-ylcyclohexanecarboxamide], affinity in test [1] was put at a Ki of 36.9 nM.
The same measure, in the same setting: the result for `CCCCc1ccc(-c2ccc(C(c3ccccc3)C(C)(C)C(=O)Nc3nncs3)cc2)cc1` (stereo not shown) [Example 418, 3-(4′-butyl-4-biphenylyl)-2,2-dimethyl-3-phenyl-N-1,3,4-thiadiazol-2-ylpropanamide] reads 26.5 nM.
On the same count and under the same terms, in the case of `CC(C)CC(c1ccc(-c2ccc(C(=O)N3CCOCC3)cc2)cc1)C(C)(C)C(=O)Nc1nncs1` (stereo not shown) [Example 427, 2,2,5-trimethyl-3-(4′-(4-morpholinylcarbonyl)-4-biphenylyl)-N-1,3,4-thiadiazol-2-ylhexanamide] it was 9.28 nM.
Still for that read-out and setting: the result for `CC(C)CC(c1ccc(-c2ccc(Cl)cc2)cc1)C(C)(C)C(=O)Nc1nncs1` (stereo not shown) [Example 432, 3-(4′-chloro-4-biphenylyl)-2,2,5-trimethyl-N-1,3,4-thiadiazol-2-ylhexanamide] reads 184 nM.
In test [2], `CC(C)(C)OC(=O)N1CCN(c2ccc(C(c3ccccc3)C(C)(C)C(=O)Nc3nncs3)cc2)CC1` (stereo not shown) [Example 238, 1,1-dimethylethyl 4-(4-(2,2-dimethyl-3-oxo-1-phenyl-3-(1,3,4-thiadiazol-2-ylamino)propyl)phenyl)-1-piperazinecarboxylate] had a Ki of 408 nM.
The same measure, in the same setting: in the case of `CC(C)(C(=O)Nc1nccs1)C(c1ccccc1)c1cccc(Br)c1` (stereo not shown) [Example 311, 3-(3-bromophenyl)-2,2-dimethyl-3-phenyl-N-1,3-thiazol-2-ylpropanamide] it was 17.5 nM; in that of `CC(=O)Oc1ccc([C@@H](c2ccccc2)C(C)(C)C(=O)Nc2nccs2)cc1` [Example 360, 4-((1R)-2,2-Dimethyl-3-oxo-1-phenyl-3-(1,3-thiazol-2-ylamino)propyl)phenyl acetate], 21.7 nM; in that of `CC(C)(C(=O)Nc1nccs1)C(c1ccccc1)c1ccc(N2CCNCC2)cc1` (stereo not shown) [Example 250, 2,2-Dimethyl-3-phenyl-3-(4-(1-piperazinyl)phenyl)-N-1,3-thiazol-2-ylpropanamide], 348 nM.
